Tested on: gene expression in four canine cell lines: CCL34 (kidney), CRL1430 (thymus), CCL183 (bone), CTAC (thyroid)
Assay: Effect of test substances or ingredients on gene expression in canine cell lines (Affymetrix Canine-1 and Canine-2 gene chips)
Format: cell-based
Conditions: for Direction of gene expression, probe 1605486_at: pyruvate dehydrogenase kinase 4 mRNA; for Direction of gene expression, probe 1605486_at / Direction of gene expression, probe 6282824_at: two concentrations per ingredient (Table 6), vs solvent control; for Direction of gene expression, probe 6282824_at: Canis familiaris carnitine palmitoyl transferase I isoform (CPT1) mRNA, human BC000185; for Direction of gene expression, probe 6283403_at: Sus scrofa carnitine palmitoyltransferase I mRNA, human AK172798
Text: Cells cultured from mammalian cell lines are used to isolate good quality RNA which is then used for future downstream genomic analysis. All work related to the culturing of the cells is to be done under strict aseptic conditions. Procedure: Removing Cells from the OptiCell Chamber (proceed one OptiCell at a time). Check the cells under a microscope to ensure that the cells are alive before isolating RNA. Remove and discard the cell culture medium. Using the OptiCell knife cut away the top membrane exposing the cells on the lower membrane. Wash the membrane to which the cells are attached three times with 1X PBS. Pipette 600 uL of the Buffer RLT solution (containing R-Mercaptoethanol) onto the center of the membrane to which the cells are attached. Using the cell scraper, gently spread the Buffer RLT over the entire surface of the membrane, and then collect the liquid in one corner. Pipette off the entire volume of Buffer RLT and place into a QIAshredder spin column. RNA Isolation: Centrifuge the QIAshredder spin columns at 14,000 rpm for 2 minutes. Discard the spin column but keep the collection tube and its contents. Add 600 uL of 70% ethanol to the collection tube and mix well by pipetting (the total volume now=1.2 mL). Transfer 600 uL of the cell lysate to an RNeasy mini column and centrifuge for 15 seconds at 14,000 rpm. Discard the flow through but keep the collection tube and the spin column. Transfer the remaining volume of cell lysate (˜600 uL) to the spin column and repeat the centrifugation. Discard the flow through but keep the collection tube and the spin column. Add 700 uL Buffer RW1 to the spin column. Centrifuge for 15 seconds at 14,000 rpm to wash the column. Discard the flow through and the collection tube. Transfer the spin column to a new 2 mL collection tube and add 500 uL Buffer RPE to the column. Centrifuge for 15 seconds at 14,000 rpm. Discard the flow through, keep the collection tube/column. Add another 500 uL Buffer RPE to the column. Centrifuge for 2 minutes at 14,000 rpm. Transfer the spin column to a 1.5 mL collection tube. […] Store the final RNA at −70° C. Gene expression was analyzed using Affymetrix Canine 1 and Canine 2 GeneChip® Arrays available commercially from Affymetrix, Inc., Santa Clara, Calif. 95051. Total RNA is reverse transcribed into cDNA. The cDNA is used to generate cRNA which is fragmented and used as probes for GeneChip hybridization. The gene chip is washed and the hybridization signal is measured with an Affymetrix laser scanner. The hybridization data is then validated and normalized for further analysis. Procedure: All procedures follow exactly as described in GeneChip Expression Analysis Technical Manual (Affymetrix Copyright 1999-2003). Use 5 microgram of total RNA for the first strand cDNA synthesis. Use either Peltier Thermal Cycler PTC-200 or heat block for temperature control on reactions and probe denaturing. The quality control is performed using RNA […] chips with BioAnalyer 2100. Use 100 Format (Midi Array) for the canine genechip. […] TAGs; ALA: EPA: DHA; linoleic acid; stearic acid (SA), conjugated linoleic acid (CLA), GLA; arachidonic acid; lecithin; vitamin A, vitamin D, vitamin E, vitamin K, riboflavin, niacin, pyridoxine, pantothenic acid, folic acid, biotin vitamin C, catechin, quercetin, theaflavin; ubiquinone: lycopene, lycoxanthin; resveratrol; α-lipoic acid; L-carnitine; D-limonene; glucosamine; S-adenosylmethionine; chitosan, various materials containing one or more of these compounds, and various combination thereof on gene expression in four canine cell lines and appropriate controls. The solvent at the higher of the two concentrations was used as a control. Four canine cell lines are used: CCL34 (kidney), CRL1430 (thymus), CCL183 (bone) (Obtained from The American Tissue Culture Collection) and CTAC (thyroid) (See, Measurement of NK Activity in Effector Cells Purified from Canine Peripheral Lymphocytes. Veterinary Immunology and Immunopathology, 35 (1993) 239-251). […]

With `CC/C=C\C/C=C\C/C=C\CCCCCCCC(=O)O` [ALA, α-linolenic acid] as the compound, how does the “Direction of gene expression, probe 6282455_at” value (Canis familiaris type I collagen pre-pro-alpha1(I) chain (COL1A1) mRNA, human AB209597) read?
The value was “DOWN (down-regulated if its value is <1/1.5 (for across all 4 cell lines analysis) or <½ (for within cell lines analysis))”.

What about the “Direction of gene expression, probe 1605486_at” value (from here on “Direction … probe 1605486_at”) (human AK096428) of the same compound?
Its value is “UP (up-regulated if it is >1.5 (for across all 4 cell lines analysis) or >2 (for within cell lines analysis))”.

`CCCCC/C=C\C/C=C\C/C=C\C/C=C\CCCC(=O)O` [ARA, arachidonic acid] was tested. Which “Direction of gene expression, probe 6282824_at” value did it give?
The value was “UP (up-regulated if it is >1.5 (for across all 4 cell lines analysis) or >2 (for within cell lines analysis))”.

What about the “Direction of gene expression, probe 1602749_at” value (Homo sapiens BAC clone RP11-44D21 from 4, human AC108866) of the same compound?
The value was “UP (up-regulated if it is >1.5 (for across all 4 cell lines analysis) or >2 (for within cell lines analysis))”.

And the “Direction of gene expression, probe 6283403_at” value?
Its value is “UP (up-regulated if it is >1.5 (for across all 4 cell lines analysis) or >2 (for within cell lines analysis))”.

And the “Direction … probe 1605486_at” value (human AK096428)?
Its value is “UP (up-regulated if it is >1.5 (for across all 4 cell lines analysis) or >2 (for within cell lines analysis))”.

Which results are given for `CC/C=C\C/C=C\C/C=C\C/C=C\C/C=C\C/C=C\CCC(=O)O` [DHA, docosahexaenoic acid]?
Direction of gene expression, probe 6282824_at: UP (up-regulated if it is >1.5 (for across all 4 cell lines analysis) or >2 (for within cell lines analysis)); Direction of gene expression, probe 6287734_at (Canis familiaris similar to Na/Pi cotransporter 4 (LOC478741) mRNA, human BC017952): UP (up-regulated if it is >1.5 (for across all 4 cell lines analysis) or >2 (for within cell lines analysis)); Direction of gene expression, probe 1605486_at (human AK096428): UP (up-regulated if it is >1.5 (for across all 4 cell lines analysis) or >2 (for within cell lines analysis))

For `CC/C=C\C/C=C\C/C=C\C/C=C\C/C=C\CCCC(=O)O` [EPA, eicosapentaenoic acid], which “Direction of gene expression, probe 6283403_at” value is on record?
Its value is “UP (up-regulated if it is >1.5 (for across all 4 cell lines analysis) or >2 (for within cell lines analysis))”.

And the “Direction … probe 1605486_at” value (human AK096428)?
Its value is “UP (up-regulated if it is >1.5 (for across all 4 cell lines analysis) or >2 (for within cell lines analysis))”.

And the “Direction of gene expression, probe 6283329_at” value (similar to secreted frizzled-related protein 4, human AC018634)?
Its value is “DOWN (down-regulated if its value is <1/1.5 (for across all 4 cell lines analysis) or <½ (for within cell lines analysis))”.

How did the “Direction of gene expression, probe 6282385_at” value (Canis familiaris Na+-dependent glutamate transporter (GLAST) mRNA, human D26443) turn out when `CCCCC/C=C\C/C=C\CCCCCCCC(=O)O` [LA, linoleic acid] was run?
The value was “DOWN (down-regulated if its value is <1/1.5 (for across all 4 cell lines analysis) or <½ (for within cell lines analysis))”.

And the “Direction of gene expression, probe 6282824_at” value?
The value was “UP (up-regulated if it is >1.5 (for across all 4 cell lines analysis) or >2 (for within cell lines analysis))”.

And the “Direction … probe 1605486_at” value (human AK096428)?
The value was “UP (up-regulated if it is >1.5 (for across all 4 cell lines analysis) or >2 (for within cell lines analysis))”.

How did the “Direction of gene expression, probe CfaAffx.9845.1.S1_s_at” value (Canis familiaris similar to leucine rich repeat containing 45 (LOC483375), human NM_144999) turn out when `CCCCCCCCCCCCCCCCCC(=O)O` [SA, stearic acid] was run?
Its value is “UP (up-regulated if it is >1.5 (for across all 4 cell lines analysis) or >2 (for within cell lines analysis))”.

And the “Direction of gene expression, probe Cfa.2282.1.S1_at” value (Canis familiaris similar to pyruvate dehydrogenase kinase isoform 4 (LOC482310) mRNA, human AK096428)?
The value was “UP (up-regulated if it is >1.5 (for across all 4 cell lines analysis) or >2 (for within cell lines analysis))”.

What about the “Direction of gene expression, probe Cfa.791.4.A1_at” value (Canis familiaris similar to ribosomal protein L24, transcript variant 2 (LOC478547), human NM_000986) of the same compound?
Its value is “UP (up-regulated if it is >1.5 (for across all 4 cell lines analysis) or >2 (for within cell lines analysis))”.

What does the source list for conjugated linoleic acid [CLA]?
Direction of gene expression, probe Cfa.10478.1.A1_at (Bos taurus similar to Type II inositol-1,4,5-trisphosphate 5-phosphatase precursor (LOC538291), human AC005691): UP (up-regulated if it is >1.5 (for across all 4 cell lines analysis) or >2 (for within cell lines analysis)); Direction of gene expression, probe Cfa.11267.1.A1_at (Homo sapiens cDNA clone IMAGE: 4456146, human BC024645): DOWN (down-regulated if its value is <1/1.5 (for across all 4 cell lines analysis) or <½ (for within cell lines analysis)); Direction of gene expression, probe Cfa.11358.1.A1_at (Homo sapiens solute carrier family 20 (phosphate transporter), member 2 (SLC20A2) mRNA, human AF170802): UP (up-regulated if it is >1.5 (for across all 4 cell lines analysis) or >2 (for within cell lines analysis))

Reference: patent US20150242566A1, “Methods and Systems for Designing Animal Food Compositions” (Hill's Pet Nutrition, Inc., priority 2005, published 2015)
